This is an account of results in patent US9585885B2, “Substituted pyrido[2,3-g]quinazolines as dopamine D2 receptor agonists” (KISSEI PHARMACEUTICAL CO., LTD., priority 2012, dated 2017).

Assay [1] addresses T1, human dopamine D2 receptor (Homo sapiens, UniProt P14416).
T1 construct: expressed in transfected cells
Briefly: Stimulating activities of human dopamine D2 receptor, [35S]GTPγS binding to hD2R#7 (HEK293) membrane homogenates. Particulars: [35S]GTPγS binding, membrane homogenates, mean value (n=2); read-out: EC50. Type of assay: biochemical. As to the method:
Identification Test of Stimulating Activities on Human Dopamine D2 Receptor
The cells, which were grown to confluence in 150 mm dishes (IWAKI), were harvested with isotonic buffer (50 mM Tris (Sigma), 2 mM ethylenediamine-tetraacetic acid (Invitrogen), and 125 mM sodium chloride (Wako Pure Chemicals), pH 7.4) and centrifuged at 1880×g and 4° C. for 10 minutes, and the cell pellets were then suspended in isotonic buffer. After being subjected to one cycle of freezing and thawing, the cells were centrifuged at 1880×g and 4° C. for 10 minutes, and the cell pellets were suspended in isotonic buffer. The cells were centrifuged at 1880×g and 4° C. for 10 minutes, and the cell pellets were suspended in isotonic buffer and homogenate buffer (10 mM sodium bicarbonate (Nacalai) and 5 mM ethylenediamine-tetraacetic acid, pH 7.5). The volume ratio of isotonic-to-homogenate buffer was 2. The cells were sonicated and centrifuged at 1880×g and 4° C. for 10 minutes, and the supernatants were ultracentrifuged at 80000×g and 4° C. for 30 minutes. The final cell pellets were suspended in homogenate buffer containing protease inhibitor cocktail (Nacalai) and stored at −80° C. until use. The protein concentration was determined using BCA Protein Assay Kit (Pierce) in accordance with the manufacturer's instructions.
The stimulating activities of human dopamine D2 receptor was determined by measuring the binding potential of [^35S]-guanosine 5′-[gamma-thio]triphosphate ([^35S]GTPγS, PerkinElmer) according to the method described by Newman-Tancredi A. et al. (Naunyn-Schmiedeberg's Arch Pharmacol, 1999, vol. 359, pp. 447-453) with a minor modification. Test compounds and dopamine hydrochloride (Fluka) as positive control were dissolved in dimethyl sulfoxide (CARLBIOCHEM), resulting in 30 mM. The both compounds were diluted with assay buffer (50 mM Tris, 100 mM sodium chloride, 5 mM magnesium chloride (Nacalai), 1 mM ethylenediamine-tetraacetic acid, 1 mM dithiothreitol (Wako Pure Chemicals), 10 μM guanosine diphosphate (Wako Pure Chemicals) and 0.5% bovine serum albumin (Sigma), pH 7.4) to a final concentration of 100 pM (only test compounds), 1 nM, 10 nM, 100 nM, 1 μM, 10 μM and 100 μM (only dopamine hydrochloride). The above membrane homogenates and [^35S]GTPγS were diluted with assay buffer to a final concentration of 0.06 mg/mL and 0.6 nM, respectively. The serial diluted compounds (50 μL), the diluted membrane homogenates (50 μL) and the diluted [^35S]GTPγS (50 μL) were mixed on multi-screen 96-well plate (Millipore) and shaken lightly at room temperature for 60 minutes. The reaction was terminated by vacuum filtration with three times washes of ice-cold wash buffer (50 mM Tris, 100 mM sodium chloride, 5 mM magnesium chloride, and 1 mM ethylenediamine-tetraacetic acid, pH 7.4). After drying the bottoms of the plate at 60° C., MicroScinti-40 (PerkinElmer) (30 μL) was added in the plate. The tops of the plate were sealed by TopSeal-A (PerkinElmer), and the radioactivity was determined in a TopCount NXT (registered mark)(PerkinElmer) after shaking lightly for 5-10 minutes. The data was analyzed by nonlinear regression and sigmoidal dose-response curve fitting using GraphPad PRISM 4.0 (GraphPad Software), and values of EC50 (concentration of the compound producing half the maximal effect of the compound) were calculated. The data was presented as mean value (n=2).

Assay [2] concerns unilateral 6-hydroxydopamine-lesioned hemi-Parkisonian rats. Briefly: Contralateral rotational behavior in unilateral 6-hydroxydopamine-lesioned hemi-parkinsonian rats. Particulars: orally 10 mg/kg, mean value; for Total number of rotations: contralateral rotations up to 24 hours after administration; for Duration: measured up to 24 hours after administration, duration of rotational response. In kind it is in vivo, rat. As to the method: 6-OHDA was dissolved at 2 mg/mL in a physiolosical saline solution containing 0.2% L-ascorbic acid. Desipramine was dissolved at 10 mg/mL in a physiolosical saline solution in a hot-water bath. Apomorphine was dissolved at 0.1 mg/mL in a physiolosical saline solution. Ropinirole was dissolved in distilled water. Test compounds were dissolved in a solution containing 2% DMA, 100 or 200 mol % hydrochloric acid, and 98% of a 0.5% methyl cellulose solution. […] (Eur J Pharmacol, 2000, vol. 408, P. 249-255) with a minor modification. Male Sprague-Dawley rats (6-weeks-old, Charles River Laboratories Japan Inc.) were anaesthetized with intraperitoneal somnopentyl (45 mg/kg) injection and placed in a stereotaxic frame (Narishige). In order to prevent 6-OHDA-induced damage of noradrenergic neurons, desipramine (25 mg/kg) was intraperitoneally injected 30 minutes before the 6-OHDA injection. After the bregma identification via a middle calvarial incision, the skull was drilled using a dental drill at the site of 6-OHDA injection. The lesion was made by injecting 6-OHDA (8 μg in 4 μL at a speed of 1 μL/minute) unilaterally into the left medial forebrain bundle by using a injection cannula (30 gauge needle) connected to a microsyringe (Hamilton) (the lesion coordinates; A/P −2.5 mm, L/M −1.8 mm, and V/D −8.0 mm, from the bregma point and surface of the skull). The cannula was carefully removed from the animal after keeping placed on the lesion site for 5 minutes. The skull was filled its hole with dental cement, disinfected, and the scalp incision was surgically sutured. Animals recovered from anesthesia were housed as usual until the day of the experiment. Three weeks after the lesion, rats were tested on the basis of their contralateral rotational behavior (single rotation was defined as a 360° turn) in response to 0.1 mg/kg apomorphine given subcutaneously. For behavioral observation, rats were placed in plastic cylinders of a diameter of 30 cm, and its contralateral rotational behaviors were videotaped and quantified by rat-rotation auto counting system R-RACS (Kissei Wellcom). On the experimental day, animals were fasted overnight, and test compounds were orally administrated at doses of 10 mg/kg. The drug potency was measured until up to 24 hours after administration as the number of contralateral rotation. […] Total number of rotations and the duration of the response in experimental period were presented as mean value. As comparative example, ropinirole as non-ergot dopamine D2 receptor agonist, was examined in a similar fashion.

Assay [3] addresses T2, human serotonin 5-HT2B receptor (Homo sapiens, UniProt P41595).
T2 construct: expressed in transfected cells; host or cells: HEK293 (transient transfection)
Briefly: Stimulating activities of human serotonin 5-HT2B receptor, intracellular calcium in forced expression HEK293 cells. Type of assay: cell-based. Particulars: intracellular calcium concentration, mean value (n=2). How it is done: Identification Test of Stimulating Activities on Human Serotonin 5-HT2B Receptor
Mostly confluent HEK293 cells were washed with PBS, followed by exfoliation with 0.05% trypsin-EDTA and the cells were suspended in D-MEM liquid medium (phenol red-free, low glucose, pyruvic acid were contained) containing fetal bovine serum (final concentration: 10%) and GlutaMax (registered mark) I (final concentration: 2 mM). The suspension was scattered at 5×10^4 cells/100 μL/well on poly-D-lysine-coated 96-well microplate (BD BioCoat (registered mark)). The scattered cells were cultured in 5% CO2 incubator at 37° C. Human serotonin 5-HT2B receptor expression plasmid was transfected in that cells according to the procedure seeing below.
Human serotonin 5-HT2B receptor expression plasmid and Lipofectamine (registered mark) 2000 (Invitrogen) were diluted to 0.008 g/L and 0.016 g/L each other with OPTI-MEM (registered mark) I Reduced-Serum Medium and incubated at room temperature. After incubation, the human serotonin 5-HT2B receptor expression plasmid-diluted liquid and Lipofectamine (registered mark) 2000-diluted liquid were mixed at an equal volume and incubated at room temperature to form a complex. The complex was dispensed at 50 μL/well on the cells prepared above. The cells were incubated in 5% CO2 incubator at 37° C. for 2 days. After incubation, the cells were used as human serotonin 5-HT2B receptor forced expression cells for measurement of intracellular calcium concentration.
The stimulating activities of human serotonin 5-HT2B receptor was determined by measuring of intracellular calcium concentration. The 30 mM dimethyl sulfoxide (DMSO) solution contained test compounds or serotonin hydrochloride (Sigma) as positive control, was diluted with assay buffer ((HBSS), 20 mM HEPES, 1.3 mM calcium chloride, 0.5 mM magnesium chloride and 0.4 mM magnesium sulfate were contained, pH7.4) to appropriate concentration.
The forced expression cells were washed with assay buffer, and 100 μL/well of fluorescent calcium indicator (Fluo-4 NW Calcium Assay Kit) was added and incubated in 5% CO2 incubator at 37° C. After incubation, 50 μL/well of each test compound was added, and the concentration of intracellular calcium was measured as fluorescent signal with FlexStation (registered mark) II (Molecular Devices). The data was analyzed by nonlinear regression and sigmoidal dose-response curve fitting using GraphPad PRISM 4.0, and values of EC50 (concentration of the compound producing half the maximal effect of the compound) were calculated. The data was presented as mean value (n=2).

pEC50: −log10 of the molar value.

T2 sequence (P41595 whole entry): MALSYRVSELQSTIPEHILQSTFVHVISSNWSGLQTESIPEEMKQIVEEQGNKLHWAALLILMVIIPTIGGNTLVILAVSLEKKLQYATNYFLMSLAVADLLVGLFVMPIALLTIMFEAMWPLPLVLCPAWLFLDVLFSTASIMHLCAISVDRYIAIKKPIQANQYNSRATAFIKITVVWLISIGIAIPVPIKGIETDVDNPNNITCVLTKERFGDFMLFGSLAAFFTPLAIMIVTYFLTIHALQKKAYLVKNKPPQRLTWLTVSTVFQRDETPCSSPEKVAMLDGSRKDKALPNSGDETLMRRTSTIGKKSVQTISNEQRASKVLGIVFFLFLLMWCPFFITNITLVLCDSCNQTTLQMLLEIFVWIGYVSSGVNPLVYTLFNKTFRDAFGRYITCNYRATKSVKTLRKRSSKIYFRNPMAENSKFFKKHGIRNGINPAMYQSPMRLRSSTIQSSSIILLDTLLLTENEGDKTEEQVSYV
T1 sequence (P14416 whole entry): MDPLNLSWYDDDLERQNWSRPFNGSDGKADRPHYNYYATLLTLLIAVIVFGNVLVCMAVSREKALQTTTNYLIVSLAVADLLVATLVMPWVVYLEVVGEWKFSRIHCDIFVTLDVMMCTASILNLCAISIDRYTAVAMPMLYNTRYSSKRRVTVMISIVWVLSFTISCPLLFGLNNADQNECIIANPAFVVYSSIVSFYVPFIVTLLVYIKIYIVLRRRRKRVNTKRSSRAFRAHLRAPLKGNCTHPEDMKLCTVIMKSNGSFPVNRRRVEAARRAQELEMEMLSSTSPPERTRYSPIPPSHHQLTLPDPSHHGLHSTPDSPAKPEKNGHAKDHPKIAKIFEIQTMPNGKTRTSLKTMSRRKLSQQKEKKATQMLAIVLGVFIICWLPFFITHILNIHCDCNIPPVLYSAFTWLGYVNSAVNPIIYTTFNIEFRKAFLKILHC

What is called pEC50 is the negative decadic logarithm of the EC50, by convention in mol/L. Turning to `CCCN1C[C@@H](NC(=O)N(CC)CCN(C)C)C[C@@H]2Cc3nc(N)ncc3C[C@H]21` [Compound 1-1, 3-[(5aR,8S,9aR)-2-Amino-6-propyl-5,5a,6,7,8,9,9a,10-octahydropyrido[2,3-g]quinazolin-8-yl]-1-[2-(dimethylamino)ethyl]-1-ethylurea], in assay [1], the pEC50 was 7.19. Also, in assay [2], the “Total number of rotations” value was 5038.5 and the Duration amounted to 541.3 minuets. The pEC50 in assay [3] was less than 5.00.

In the case of `CCCN(CCN(C)C)C(=O)N[C@H]1C[C@@H]2Cc3nc(N)ncc3C[C@H]2N(CCC)C1` [Compound 1-2, 3-[(5aR,8S,9aR)-2-amino-6-propyl-5,5a,6,7,8,9,9a,10-octahydropyrido[2,3-g]quinazolin-8-yl]-1-[2-(dimethylamino)ethyl]-1-propylurea], the pEC50 in assay [1] was 6.60. In assay [2], the “Total number of rotations” value was 2580.0 and the Duration is listed as 307.5 minuets. Further, in assay [3], the pEC50 was less than 5.00.

With `CCCN1C[C@@H](NC(=O)N(C)CCN(CC)CC)C[C@@H]2Cc3nc(N)ncc3C[C@H]21` [Compound 1-4, 3-[(5aR,8S,9aR)-2-amino-6-propyl-5,5a,6,7,8,9,9a,10-octahydropyrido[2,3-g]quinazolin-8-yl]-1-[2-(diethylamino)ethyl]-1-methylurea], the negative-log EC50 (pEC50) in assay [1] was 6.95. In assay [2], the “Total number of rotations” value is reported as 3975.0 and the Duration came to 538.8 minuets. Also, the pEC50 in assay [3] is less than 5.00.
